Data from patent publication US20200330400A1, “METHODS FOR THE TREATMENT OF CANCER USING COENZYME Q10 AND FATTY ACID METABOLISM INHIBITORS” (Berg LLC, priority 2016, published 2020).

How the values were obtained:
[1] = system: MIA PaCa-2 pancreatic cancer cells; test: Cell viability of MIA PaCa-2 pancreatic cancer cells exposed to Coenzyme Q10 alone or with fatty acid metabolism inhibitors; type: cell-based; conditions: for Sensitivity of cells to Coenzyme Q10 when treated in combination (reduced viability): co-treatment with named agent
Source text: Cell viability was next assessed in MIA PaCa-2 pancreatic cancer cells exposed to Coenzyme Q10 alone or in combination with the fatty acid metabolism inhibitors C75, etomoxir, trimetazidine, metformin, and the Stearoyl-CoA desaturase-1 (SCD-1) inhibitor A939572. […] SCD-1 is an endoplasmic reticulum enzyme that catalyzes the formation of the monounsaturated fatty acids oleic acid and palmitoleic acid from stearoyl-CoA and palmitoyl-CoA. Oleic acid and palmitoleic acid are major components of membrane phospholipids, cholesterol esters and alkyl-diacylglycerol. Thus SCD-1 is a key enzyme in fatty acid metabolism. Inhibition of SCD-1 results in depletion of mono-unsaturated fatty acids and reduction of lipid storage.

[2] = system: MDA-MB231 breast cancer cells; test: Cell viability of MDA-MB231 breast cancer cells exposed to Coenzyme Q10 alone or with fatty acid metabolism inhibitors; type: cell-based, human; conditions: for Sensitivity of cells to Coenzyme Q10 when treated in combination (shift of Coenzyme Q10 dose-response curve): MDA-MB231, co-treatment with named agent
Protocol: (§1) Cell viability was assessed in MDA-MB231 and SkBr-3 breast cancer cells exposed to Coenzyme Q10 alone or in combination with the fatty acid metabolism inhibitors C75, etomoxir, and trimetazidine, as well as a more pleiotropic fatty acid metabolism modulator, metformin. […] Metformin is used clinically as an anti-diabetic agent to suppress glucose production by the liver; however, the mechanism of action remains incompletely understood.
(§2) Coenzyme Q10 was applied to the cells in a 4% Coenzyme Q10 nanosuspension formulation (as described in WO 2011/112900, the entire contents of which are expressly incorporated herein by reference) comprising a phosphatidylcholine (e.g., dimyristoylphosphatidyl choline (DMPC)).

[3] = system: SKBr-3 breast cancer cells; test: Cell viability of SKBr-3 breast cancer cells exposed to Coenzyme Q10 alone or with fatty acid metabolism inhibitors; type: cell-based; conditions: for Sensitivity of cells to Coenzyme Q10 when treated in combination (shift of Coenzyme Q10 dose-response curve): SkBr-3, co-treatment with named agent
Protocol: as §1, §2

[4] = system: MDA-MB231 breast cancer cells; test: Free glycerol, DAG and TAG content in MDA-MB231 cells treated with Coenzyme Q10; type: cell-based, human; conditions: Coenzyme Q10 treatment
Source text: FIGS. 6B and 6C show diacylglyceride (DAG) (B), and triacylglyceride (TAG) content (C) in MDA-MB231 breast cancer cells treated with Coenzyme Q10.
To further evaluate the effect of Coenzyme Q10 on cancer cell lipid composition, structural lipidomic analysis was used to assess the metabolic fate of the lipid components of the Coenzyme Q10 formulation itself, such as DMPC. DMPC is a 14:0 lipid which is not found endogenously in human cells. Accordingly, it was possible to distinguish between DMPC-containing species based on the length of the fatty acid chains, e.g. 28:0 DAG and 42:0 TAG are not found endogenously. […] Accordingly, cancer cells treated with lipid-containing formulations may be especially sensitive to fatty acid metabolism inhibitors, due to the increased fatty acid metabolism activity resulting from storage and degradation of the lipid formulation components.

[5] = system: fatty acid metabolism genes FASN, CPT1, ACSL1 and DGAT1; test: mRNA expression of fatty acid metabolism genes in MDA-MB231 cells treated with Coenzyme Q10; type: cell-based, human; conditions: Coenzyme Q10 alone
Source text: FASN catalyzes the synthesis of the fatty acid palmitate (C16:0, a long-chain saturated fatty acid) from acetyl-CoA and malonyl-CoA, in the presence of NADPH. CPT-1 is a mitochondrial enzyme responsible for the formation of acyl carnitines by catalyzing the transfer of the acyl group of a long-chain fatty acyl-CoA from coenzyme A to l-carnitine. CPT-1 mediated formation of acyl carnitine allows for subsequent movement of the acyl carnitine from the cytosol into the intermembrane space of mitochondria. ACSL1 activates the degradation of complex fatty acids. Specifically, this enzyme catalyzes the formation of fatty acyl-CoA by a two-step process proceeding through an adenylated intermediate. DGAT1 catalyzes the formation of triglycerides from diacylglycerol and Acyl-CoA. The reaction catalyzed by DGAT is considered the terminal and only committed step in triglyceride synthesis and to be essential for the formation of adipose tissue.

Row | SMILES | Sensitivity of cells to Coenzyme Q10 when treated in combination (reduced viability) [1] | Sensitivity of cells to Coenzyme Q10 when treated in combination (shift of Coenzyme Q10 dose-response curve) [2] | Sensitivity of cells to Coenzyme Q10 when treated in combination (shift of Coenzyme Q10 dose-response curve) [3] | also measured
1 | CNC(=O)c1cccc(NC(=O)N2CCC(Oc3ccccc3Cl)CC2)c1 [A939572] | more sensitive to Coenzyme Q10 |  |  | 
2 | C=C1C(=O)OC(CCCCCCCC)C1C(=O)O (stereo not shown) [C75] | more sensitive to Coenzyme Q10 | more sensitive to Coenzyme Q10 | more sensitive to Coenzyme Q10 | 
3 | COC1=C(OC)C(=O)C(C/C=C(\C)CC/C=C(\C)CC/C=C(\C)CC/C=C(\C)CC/C=C(\C)CC/C=C(\C)CC/C=C(\C)CC/C=C(\C)CC/C=C(\C)CCC=C(C)C)=C(C)C1=O [Coenzyme Q10] |  |  |  | Diacylglyceride (DAG), triacylglyceride (TAG) and glycerol content [4]: accumulation of diacylglyceride (DAG), triacylglyceride (TAG) and the triglyceride backbone, glycerol; EC50 ([2]; EC50 of Coenzyme Q10 (4% nanosuspension) alone or plus named inhibitor, inhibitor concentration not in table (FIGS. 1-4: C75 5 μM, Etomoxir 50 μM, Trimetazidine 375 μM, metformin 500 μM)): 165 µM; EC50 ([3]; EC50 of Coenzyme Q10 (4% nanosuspension) alone or plus named inhibitor, inhibitor concentration not in table): 599 µM; EC50 ([1]; Coenzyme Q10 alone (A939572 experiment, FIG. 10)): 142 µM; EC50 ([1]; Coenzyme Q10 alone (metformin experiment, FIG. 8)): 261 µM; EC50 ([1]; Coenzyme Q10 alone or with Etomoxir 100 μM, C75 10 μM or Trimetazidine 250 μM (FIG. 9)): 284 µM; mRNA expression of FASN, CPT-1, ACSL1 and DGAT1 [5]: dose- and time-dependent increase in mRNA expression
4 | CCOC(=O)C1(CCCCCCOc2ccc(Cl)cc2)CO1 (stereo not shown) [Etomoxir, 2-(6-(4-chlorophenoxy)-hexyl)-oxirane-2-carboxylic acid ethyl ester] | more sensitive to Coenzyme Q10 | more sensitive to Coenzyme Q10 | more sensitive to Coenzyme Q10 | 
5 | CN(C)C(=N)N=C(N)N [Metformin] | more sensitive to Coenzyme Q10 | did not alter cytotoxic responses to Coenzyme Q10 | did not alter cytotoxic responses to Coenzyme Q10 | Cell viability ([1]; Coenzyme Q10 and 0.5 mM metformin): lower viability than cells treated with Coenzyme Q10 alone; Cell viability ([1]; Coenzyme Q10 and 1 mM or 5 mM metformin): lower viability than cells treated with Coenzyme Q10 and 0.5 mM metformin
6 | COc1ccc(CN2CCNCC2)c(OC)c1OC [Trimetazidine] | more sensitive to Coenzyme Q10 | more sensitive to Coenzyme Q10 | more sensitive to Coenzyme Q10 | 
